# Results taken from patent US8178058B2, “High throughput cell-based assays, methods of use and kits” (EMD Millipore Corporation, priority 2007, dated 2012).
# Tested on: activated caspases
# Assay: Cell based apoptosis assay (FLICA FAM-VAD-FMK staining, gravity washing, flow cytometry)
# Details: cells treated 2 hours at 37° C with 10, 0.63, 0.06 microMolar Staurosporine vs non-induced control
# Method: Cell based apoptosis assay was performed using gravity based filtration.
# Cells were treated with increasing concentration of well-known apoptosis inducer (Staurosporine) for 2 hours at 37° C. After induction, cells were treated with FLICA. Unbound FLICAs were removed from the nonapoptotic cells by gravity washing the cells with wash buffer 4 times. After gravity washing cells labeled with FLICAs (FAM-VAD-FMK, pan-caspases FLICA) was examined by flow cytometry.
# Shown in FIGS. 10A and B are flow cytometric histograms of FAM-VAD-FMK stained cells from induced (10, 0.63, 0.06 microMolar of Staurosporine) and non-induced control samples.
# Notice the dose response.
compound,measurement,value
CN[C@@H]1C[C@H]2O[C@@](C)([C@@H]1OC)n1c3ccccc3c3c4c(c5c6ccccc6n2c5c31)C(=O)NC4 [Staurosporine],apoptotic cell population (FAM-VAD-FMK percent positive population),Increase in apoptotic cell population
